Laboratory results reported in US5436252A, “5-aryl-3H-1,2,4-triazol-3-ones and their use in the treatment of neurodegenerative disorders” (Merrell Dow Pharmaceuticals Inc., priority 1990, dated 1995).
Where two headings read alike, the source gives them in different places.

Legend:
[1] = Antagonism of Quinolinic Acid Induced Seizures (clonic-tonic seizures after icv quinolinic acid); type: in vivo, mice; conditions: for ED50 / responders at 64 mg/kg: Mus musculus; for responders at 64 mg/kg: 64 mg/Kg IP, animals protected/tested, quinolinic acid 7.7 μg icv, read-out: Mice Protected 64 mg/Kg IP
[2] = administration to rodents; background; cited from earlier work
[3] = Hippocampal neurodegeneration after carotid artery occlusion (CA1 damage score); type: in vivo, Male mongolian gerbils
Text: Male mongolian gerbils (Tumblebrook Farms) weighing 45 to 60 gms were used for the experiments measuring hippocampal neurodegeneration after carotid artery occlusion. The gerbils were housed in small groups and allowed ad lib access to food and water prior to surgery. Following administration of drug, the gerbils were anesthetized with halothane (3.5%) and prepared for surgery.
An incision was made in the midline region of the neck and both carotid arteries were exposed and isolated from surrounding tissue. In sham operated animals the wounds were then closed and the animals were allowed to recover. In the hypoxic group the isolated carotid arteries were occluded for 5 minutes with 7 mm Mayfield aneurysm clips. Loss of blood flow to the cortex was confirmed by observation with an opthalmoscope of the blanching of the radial arteries in the retina of the ipsilateral eye. After 5 minutes the clips were removed and the gerbils were placed in their home cages and allowed to recover. After 7 days the gerbils were sacrificed by an overdose of chloral hydrate and perfused intracardially with 10 ml of 1% […] followed by 15 ml of 10% buffered formalin. […] Damage to the CA1 region was assessed by 3 observers who were blind to the previous treatment of the gerbil. This damage was assessed according to the scale below. […]

[4] = mice; background; cited from earlier work
[5] = gerbils; background; cited from earlier work
[6] = 0.5 h, IP, 30', read-out: ED50 IP

## CCn1c(-c2ccc(Cl)cc2)n[nH]c1=O [4-ClC6 H4, H, C2 H5, 5-(4-Chlorophenyl)2,4-dihydro-4-ethyl-3H-1,2,4-triazol-3-one]
[1]; [6]
  ED50: 51 mg/kg

## CCn1nc(-c2cccs2)n(C)c1=O [2-Thienyl, C2 H5, CH3, 5-(2-thienyl)-2,4-dihydro-2-ethyl-4-methyl-3H-1,2,4-triazol-3-one]
[1]; IP, range, time not given, printed near the Mice Protected column, read-out: ED50 IP
  ED50: 8 to 64 mg/kg

## C=C(C)[C@H]1CN[C@H](C(=O)O)[C@H]1CC(=O)O [kainic acid]
[2]
  neuronal degeneration (in words): shown to cause neuronal degeneration

## Cn1nc(-c2ccccc2Cl)n(C)c1=O [2-ClC6 H4, CH3, CH3]
[1]
  responders at 64 mg/kg: 60%

## Cn1nc(-c2ccccc2)n(C)c1=O [C6 H5, CH3, CH3]
[1]
  responders at 64 mg/kg: 50%

## Cn1c(-c2ccccc2)n[nH]c1=O [C6 H5, H, CH3]
[1]
  responders at 64 mg/kg: 50%

## Cn1c(-c2ccccc2Cl)n[nH]c1=O [2-ClC6 H4, H, CH3, 5-(2-chlorophenyl)-2,4-dihydro-4-methyl-3H-1,2,4-triazol-3-one]
[1]; [6]
  ED50: 64.9 mg/kg
[1]
  responders at 64 mg/kg: 60%
[1]; IP, 2 hr, read-out: ED50 IP
  ED50: > 64 mg/kg

## CCn1c(-c2ccc(Cl)cc2)nn(C)c1=O [4-ClC6 H4, CH3, C2 H5, 5-(4-Chlorophenyl)-2,4-dihydro-4-ethyl-2-methyl-3H-1,2,4-triazol-3-one]
[1]; [6]
  ED50: 25.9 mg/kg
[1]; 0.5 h, PO, 30', read-out: ED50 PO
  ED50: 29.9 mg/kg
[1]; 1 h, IP, 60', read-out: ED50 IP
  ED50: 17.2 mg/kg
[1]; IP, 2 hr, read-out: ED50 IP
  ED50: 39.2 mg/kg
[1]; PO, 4 hr, read-out: ED50 PO
  ED50: 52.3 mg/kg
[1]; PO, 24 hr, read-out: ED50 PO
  ED50: > 128 mg/kg
[3]; 40 mg/kg i.p.
  reduction of damage: 66%

## Cn1nc(-c2ccc(Cl)cc2)n(C)c1=O [4-ClC6 H4, CH3, CH3, 5-(4-chlorophenyl)-2,4-dihydro-2,4-dimethyl-3H-1,2,4-triazol-3-one]
[1]
  responders at 64 mg/kg: 80%

## CCCCOc1cc(-c2nn(C)c(=O)n2C)ccc1OC [3-(n-C4 H9 O)--4-CH3 OC6 H3, CH3, CH3]
[1]
  responders at 64 mg/kg: 60%

## O=C(O)c1cccnc1C(=O)O [quinolinic acid, reference compound]
[1]; 7.7 μg in 5 μl saline icv
  clonic-tonic seizures caused in otherwise untreated mice: 90-100%
[2]
  neuronal degeneration (in words): shown to cause neuronal degeneration

## Cn1c(-c2ccc(Cl)cc2)n[nH]c1=O [4-ClC6 H4, H, CH3]
[1]
  responders at 64 mg/kg: 60%

## CCn1nc(-c2ccccc2)n(C)c1=O [C6 H5, C2 H5, CH3]
[1]
  responders at 64 mg/kg: 50%

## N[C@@H](Cn1oc(=O)[nH]c1=O)C(=O)O [quisqualic acid]
[2]
  neuronal degeneration (in words): shown to cause neuronal degeneration

## Cn1c(-c2ccncc2)n[nH]c1=O [4-Pyridyl, H, CH3, 2,4-Dihydro-4-methyl-5-(4-pyridinyl)-3H-1,2,4-triazol-3-one]
[1]
  responders at 64 mg/kg: 30%

## C[C@]12N[C@H](Cc3ccccc31)c1ccccc12 [MK-801, (S)-10,11-dihydro-5-methyl-5H-dibenzo(a,d)cyclohepten-5,10-imine]
[3]; 5 mg/kg, 30 minutes prior to ligation
  reduction of apparent damage: 28%
[4]
  antagonism of quinolinic acid seizures (in words): antagonize the seizures induced in mice by quinolinic acid
[5]
  antagonism of hippocampal neurodegeneration (in words): antagonize hippocampal neurodegeneration after carotid artery occlusion in gerbils

## CCCCOc1cc(-c2n[nH]c(=O)n2C)ccc1OC [3-(n-C4 H9 O)--4-CH3 OC6 H3, H, CH3, 5-[3-(n-butoxy)-4-methoxyphenyl]-2,4-dihydro-4-methyl-3H-1,2,4-triazol-3-one]
[1]
  responders at 64 mg/kg: 70%

## COc1ccc(-c2nn(C)c(=O)n2C)cc1OC1CCCC1
[1]
  responders at 64 mg/kg: 60%

## COc1ccc(-c2n[nH]c(=O)n2C)cc1OC1CCCC1 [3-(cyclo-C5 H9 O)--4-CH3 OC6 H3, H, CH3]
[1]
  responders at 64 mg/kg: 20%

## Cn1c(-c2ccc(Cl)c(Cl)c2)n[nH]c1=O [3,4-Cl2 C6 H3, H, CH3, 5-(3,4-dichlorophenyl)-2,4-dihydro-4-methyl-3H-1,2,4-triazol-3-one]
[1]; @ 32 mg/Kg IP, (60')
  Mice Protected: 5/10
[1]; [6]
  ED50: < 8 mg/kg
[1]; PO, time not given, read-out: ED50 PO
  ED50: > 16 mg/kg
